Experimental findings from US9895407B2, “Disinfecting formulations and uses thereof” (Sunny Wipes Pty Ltd, priority 2011, dated 2018) are described below.

One experiment concerns hand microflora. Nature of the experiment: Surgical handrub test, EN 12791:2005. The conditions noted are these: 5 volunteers, 60 seconds exposure, right hand under sterile glove for 3 hours. Format: in vivo, human.
Experiment [1] deals with Escherichia coli (NCTC 10538). Nature of the experiment: Hygienic handwash/handrub test, EN 1500:1997, artificially contaminated hands. Format: in vivo. The conditions noted are these: 60 second rub. The source says:
The protocol is based upon European standard EN 1500:1997 designed for testing “Chemical disinfectants and antiseptics—Hygienic handwash”. The subjects (15 volunteers with clean and healthy hands that were free of cuts and abrasions and having short, clean fingernails) were split into two approximately equal groups which were alternately treated with the standard formulation or the test formulation initially and then the other formulation, separately by a one day. The hands of the subjects were initially washed for 1 min with soap and water and dried with paper towel. […] Excess fluid was allowed to drain back into the container. Hands were air dried for 3 minutes, holding them in a horizontal position. Each subject was encouraged to rotate their hands to avoid the formation of droplets. Each subject was treated from the same batch of contamination fluid. After drying, fingertips and thumb were rubbed for 1 minute on the base of a Petri-dish, which contained 10 mL of TSB. A separate Petri-dish for each hand (Left and Right) was used. This was the Pre-value. Dilutions of 10^−4 and 10^−5 were prepared using sterile Peptone Water (PEP). Each dilution was spread onto pre-poured, dried TSA plates. […] This procedure was completed with a 5 second rinse of fingers under running tap water. For the test formulation, 3 mL of test product was dispensed onto the subject's hands and rubbed over for 30 seconds using the standard procedure as instructed. This was done twice to give total of 6 mL test product over 60 second rub. The test product procedure was completed with a 5 seconds rinse of fingers under running tap water. […] Dilutions of 10^0, 10^−1 and 10^−2 were spread on pre-poured and dried TSA plates. All plates were incubated at 36° C.±2° C. for 24-48 hours. After the incubation period, all the plates were checked and colony forming units on both standard and test sample were counted. Dilutions with counts that are within 15-300 cfu were used in the computation. Plates showing less than 15 cfu or no growth were also counted. […] The test culture used in this study was obtained from the University of New South Wales Culture Collection—Escherichia coli (NCTC 10538) A neutralizer validated according to prEN 12054 were incorporated in the sampling fluids and diluents for the assessment of post-values in both test and reference procedure. […] The test organism was freshly revived from frozen protect beads by sub culturing in two McCartney bottles containing 5 mL of TSB. They were incubated at 37° C. These cultures are then inoculated into two bottles containing 1 L TSB. They were incubated at 37° C. for 18-24 hours The cultures were pooled into a sterile bottle to prepare the bacterial suspension. […] For testing this product, a cross-over design was used. […]

Experiment [2] relates to Escherichia coli (NCTC 10538). The experiment is described as above. Format: in vivo. The conditions noted are these: N = 14 subjects.
Where [3] appears, read: per subject and hand, duplicate plates, 2 x 3 mL.

Structures are written as SMILES. “And” between values parts separate entries of the source, which are not always exact repeats. Equal values may be shown once.

Protocol for hand microflora: The protocol is based upon European standard EN 12791:2005 designed for testing “Chemical disinfectants and antiseptics—Surgical hand disinfectant”.
The clean and healthy hands (free of cuts and abrasions and with short, clean fingernails) of 5 volunteers were initially washed for 1 min with soap and water and dried with paper towel. To establish base line flora levels the fingertips and thumb were rubbed for 1 minute on the base of a petri dish containing 10 ml of Tryptone Soy Broth (TSB). A separate petri dish was used for each hand. Dilutions of 10^−2 and 10^−3 were prepared from the TSB that were assayed by the pour-plate method using Tryptone Soy Agar (TSA) plates.
Immediately after sampling for the baseline and without recontamination of the hands the subjects performed the handrub test. The subjects were split into two groups which were alternately treated with the standard formulation or the test formulation initially and then the other formulation, separately by a week to allow re-colonisation of native flora. […]
Log10, values for immediate effect and sustained effect were then determined and a Log Reduction Factor for both test formulation and standard formulation were calculated based on the average difference between the log10 pre-value and the log10 post-value in each subject.

As for `CCCO` [60% propan-1-ol, propan-1-ol], in the experiment on hand microflora, the “reduction of hand microflora, after 3 hours” value is 1.89 Logs.

For `CC(C)O` [60% propan-2-ol, propan-2-ol], the Postvalues in experiment [1] (per subject and hand (L/R), after 2 x 3 mL) was 625 and 5 (3×) and 0 (2×) and 235 (2×) and 455 and 52 and 127 and 240 and 1415 and 2050 and 5950 and 4 and 165 and 125 and 690 and 250 and 210 and 21 and 61 and 30 and 74 and 7 and 22 and 1530. Besides, in experiment [1] (setting [3]), the “Number of cfu per plate, Postvalues, dilution 10^-0” value was “TNTC/TNTC (14×) and 42/41 and 0/0 (3×) and 5/4 and 58/46 and 134/120 and 4/3 and 5/5 and 246/275 and 232/182 and 19/22 and 54/69 and 86/62 and 3/10 and 21/22”; the “Number of cfu per plate, Postvalues, dilution 10^-1” value is 108/94 and 9/3 and 177/129 and 62/63 and 1/0 and 5/3 and 0/0 (6×) and 20/27 and 50/41 and 2/0 and 26/22 and 141/142 and TNTC/TNTC (2×) and 0/5 and 18/15 and 9/16 and 17/30 and 62/76 and 26/24 and 19/23 and 8/8 and 1/5 and 1/11 and 1/2; the “Number of cfu per plate, Postvalues, dilution 10^-2” value is 5/16 and 0/3 and 11/19 and 2/4 and 0/0 (12×) and 0/1 (2×) and 2/1 and 3/9 and 7/3 and 11 cfu and 16/ cfu and 56/ cfu and 0/2 and 1/0 and 10/9 and 17 cfu and 1/2 and 3/5. In experiment [2], the “Log Y, average of subjects” value stood at 1.97.
